For 84 compounds, LC retention time results are on record in the RepoRT retention time repository.

This data set in a line: HILIC, Waters ACQUITY UPLC BEH Amide, 100 × 2.1 mm, 1.7 µm; A: water + 0.125% formic acid + 10 mM ammonium formate; B: 5% water + 95% acetonitrile + 0.125% formic acid + 10 mM ammonium formate; gradient (min/%B) 0/100 2/100 7.7/70 9.5/40 10.25/30 12.75/100 17/100. As to conditions: stereoisomer not certain.

For `CC(=O)NC(Cc1c[nH]c2ccccc12)C(=O)O` (centres undefined) [N-Acetyltryptophan], the LC retention time turned out to be 2.81 min.

For the compound `O=C(O)CNC(=O)OCc1ccccc1` [N-Benzyloxycarbonylglycine], the LC retention time turned out to be 7.67 min.

`CC(C)CC(NC(=O)OCc1ccccc1)C(=O)O` (centres undefined) [N-Carbobenzyloxyleucine]: the LC retention time amounted to 1.28 min.

Consider `O=C(O)CNC(=O)C=Cc1ccccc1` [N-Cinnamoylglycine], for which the LC retention time is 2.95 min.

On to `O=CNC1CCCCC1` [N-Cyclohexylformamide], for which the LC retention time came to 1.2 min.

In the case of `CSCCC(NC=O)C(=O)O` (centres undefined) [N-Formylmethionine], the LC retention time came out at 3.93 min.

For `CC(C)C(=O)NCC(=O)O` [N-Isobutyrylglycine], the LC retention time turned out to be 3.6 min.

For the compound `CC(C)CC(=O)NCC(=O)O` [N-Isovalerylglycine], the LC retention time amounted to 2.94 min.

`CNC(C)C(=O)O` (centres undefined) [N-Methylalanine]: the LC retention time worked out at 7.67 min.

In the case of `CNc1ccccc1` [N-Methylaniline], the LC retention time is 1.06 min.

`CNc1ccccc1C(=O)O` [N-Methylanthranilic acid]: the LC retention time was determined as 1.22 min.

Regarding `CNC(CC(=O)O)C(=O)O` (centres undefined) [N-Methylaspartic acid], the LC retention time was 2.53 min.

For `CNC(CCC(=O)O)C(=O)O` (centres undefined) [N-Methylglutamic acid], the LC retention time was found to be 8.32 min.

Take `CNC(Cc1cnc[nH]1)C(=O)O` (centres undefined) [N-Methylhistidine]: the LC retention time was determined as 9.47 min.

For `CCC(C)C(NC)C(=O)O` (centres undefined) [N-Methylisoleucine], the LC retention time stood at 6.44 min.

Take `CNC(CC(C)C)C(=O)O` (centres undefined) [N-Methylleucine]: the LC retention time was 6.45 min.

Take `CNCCCCC(N)C(=O)O` (centres undefined) [N-Methyllysine]: the LC retention time came to 9.36 min.

For `CN1CCC(c2ccc(F)cc2)C(COc2ccc3c(c2)OCO3)C1` (centres undefined) [N-Methylparoxetine], the LC retention time turned out to be 2.2 min.

`CNC(Cc1ccccc1)C(=O)O` (centres undefined) [N-Methylphenylalanine]: the LC retention time stood at 6.22 min.

`CN1CCCC1C(=O)O` (centres undefined) [N-Methylproline]: the LC retention time worked out at 7.11 min.

Take `CNC(C(=O)O)C(C)O` (centres undefined) [N-Methylthreonine]: the LC retention time was 7.68 min.

Regarding `CNC(Cc1ccc(O)cc1)C(=O)O` (centres undefined) [N-Methyltyrosine], the LC retention time came to 6.79 min.

Take `CNC(C(=O)O)C(C)C` (centres undefined) [N-Methylvaline]: the LC retention time came to 6.99 min.

Regarding `CC(=O)NC(CCCN)C(=O)O` [N-alpha-Acetyl-L-ornithine], the LC retention time was 8.31 min.

With `CNCCc1cnc[nH]1` [N-alpha-methylhistamine], the LC retention time turned out to be 7.48 min.

`CC(=O)NCCCCC(N)C(=O)O` (centres undefined) [N-epsilon-Acetyllysine]: the LC retention time worked out at 8.03 min.

On to `COc1ccc(NC=O)c(C(=O)CCNC(C)=O)c1` [N-gamma-Acetyl-N-2-formyl-5-methoxykynurenamine], for which the LC retention time was determined as 1.32 min.

For `CC(=O)NCCc1cnc[nH]1` [N-omega-Acetylhistamine], the LC retention time is 6 min.

As to `CC(=O)N[C@@H](CCCCN)C(=O)O` [N.alpha.-Acetyl-L-lysine], the LC retention time came to 8.15 min.

With `CN[C@@H](CCCCN)C(=O)O` [N.alpha.-Methyl-L-lysine], the LC retention time stood at 7.35 min.

With `C[N+](C)(C)CCCCC(N)C(=O)[O-]` (centres undefined) [NEPSILON,NEPSILON,NEPSILON-TRIMETHYLLYSINE], the LC retention time came to 9.29 min.

Consider `CCCCN1CCCC1CNC(=O)c1cc(C#N)c2ccccc2c1OC` (centres undefined) [Nafadotride], for which the LC retention time came to 2.05 min.

`COc1ccccc1N1CCN(CC(O)COc2cccc3ccccc23)CC1` (centres undefined) [Naftopidil]: the LC retention time worked out at 1.99 min.

For `Oc1ccc2c3c1OC1C(O)CCC4(O)C(C2)N(CC2CCC2)CCC314` (centres undefined) [Nalbuphine], the LC retention time worked out at 5.25 min.

With `Oc1ccc2c3c1OC1c4[nH]c5ccccc5c4CC4(O)C(C2)N(CC2CC2)CCC314` (centres undefined) [Naltrindole], the LC retention time was found to be 4.45 min.

Regarding `CC12CCC3C4CCC(=O)C=C4CCC3C1CCC2O` (centres undefined) [Nandrolone], the LC retention time worked out at 1.06 min.

Turning to `CC1OC(OC2C(Oc3cc(O)c4c(c3)OC(c3ccc(O)cc3)CC4=O)OC(CO)C(O)C2O)C(O)C(O)C1O` (centres undefined) [Naringin], the LC retention time stood at 5.61 min.

Regarding `CC(C)C1CCC(C(=O)NC(Cc2ccccc2)C(=O)O)CC1` (centres undefined) [Nateglinide], the LC retention time is 1.3 min.

For the compound `CCc1nn(CCCN2CCN(c3cccc(Cl)c3)CC2)c(=O)n1CCOc1ccccc1` [Nefazodone], the LC retention time is 1.88 min.

Regarding `Cc1c(O)cccc1C(=O)NC(CSc1ccccc1)C(O)CN1CC2CCCCC2CC1C(=O)NC(C)(C)C` (centres undefined) [Nelfinavir], the LC retention time was found to be 1.55 min.

For `CC(=O)OCC=C(C)CCC=C(C)C` [Nerylacetate], the LC retention time is 0.99 min.

For `O=C(CCNNC(=O)c1ccncc1)NCc1ccccc1` [Nialamide], the LC retention time is 1.69 min.

In the case of `O=C(NCCO[N+](=O)[O-])c1cccnc1` [Nicorandil], the LC retention time amounted to 1.11 min.

For `NC(=O)c1ccc[n+](C2OC(CO)C(O)C2O)c1` (centres undefined) [Nicotinamide riboside cation], the LC retention time is 7.51 min.

Consider `NC(=O)c1cccnc1` [Nicotinamide], for which the LC retention time amounted to 1.7 min.

As for `CN1CCCC1c1cccnc1` (centres undefined) [Nicotine], the LC retention time is 5.34 min.

On to `O=C(O)c1cccnc1` [Nicotinic acid], for which the LC retention time was 4.01 min.

For `O=C(O)CNC(=O)c1cccnc1` [Nicotinoylglycine], the LC retention time was 7.08 min.

Turning to `COC(=O)C1=C(C)NC(C)=C(C(=O)OC)C1c1ccccc1[N+](=O)[O-]` [Nifedipine], the LC retention time came out at 1.02 min.

Take `Cn1c(NCCN(CCO)CCCc2ccc([N+](=O)[O-])cc2)cc(=O)n(C)c1=O` [Nifekalant]: the LC retention time is 3.21 min.

As for `CN1C(=O)CN=C(c2ccccc2)c2cc([N+](=O)[O-])ccc21` [Nimetazepam], the LC retention time stood at 0.98 min.

Turning to `COCCOC(=O)C1=C(C)NC(C)=C(C(=O)OC(C)C)C1c1cccc([N+](=O)[O-])c1` (centres undefined) [Nimodipine], the LC retention time stood at 0.94 min.

As to `CC(=O)Oc1ccccc1C(=O)Nc1ncc([N+](=O)[O-])s1` [Nitazoxanide], the LC retention time was 1 min.

Turning to `O=C1CN=C(c2ccccc2)c2cc([N+](=O)[O-])ccc2N1` [Nitrazepam], the LC retention time is 1.2 min.

With `CCOC(=O)C1=C(C)NC(C)=C(C(=O)OC)C1c1cccc([N+](=O)[O-])c1` (centres undefined) [Nitrendipine], the LC retention time stood at 0.95 min.

As for `CNC(=C[N+](=O)[O-])NCCSCc1csc(CN(C)C)n1` [Nizatidine], the LC retention time amounted to 4.65 min.

`COc1ccc(-c2cc(=O)c3c(OC)c(OC)c(OC)c(OC)c3o2)cc1OC` [Nobiletin]: the LC retention time stood at 1 min.

Take `CCCCC(N)C(=O)O` (centres undefined) [Norleucine]: the LC retention time came to 6.99 min.

On to `c1cncc(C2CCCN2)c1` (centres undefined) [Nornicotine], for which the LC retention time worked out at 5.98 min.

Regarding `CCCC(N)C(=O)O` (centres undefined) [Norvaline], the LC retention time turned out to be 4.89 min.

`COc1ccc2c(c1OC)C(=O)OC2C1c2c(cc3c(c2OC)OCO3)CCN1C` (centres undefined) [Noscapine]: the LC retention time amounted to 1.31 min.

`CC(=O)OCC[C@H](N)C(=O)O` [O-Acetyl-L-homoserine]: the LC retention time came to 7.6 min.

Consider `CC(=O)OCC(N)C(=O)O` (centres undefined) [O-Acetylserine], for which the LC retention time stood at 7.67 min.

Regarding `NCCOP(=O)(O)O` [O-Phosphocolamine], the LC retention time was 9.23 min.

In the case of `NC(COP(=O)(O)O)C(=O)O` (centres undefined) [O-Phosphoserine], the LC retention time stood at 9.85 min.

For the compound `NC(CCOC(=O)CCC(=O)O)C(=O)O` (centres undefined) [O-Succinylhomoserine], the LC retention time worked out at 8.06 min.

`O=C(O)CCCCCCCCCCCCCCCCC(=O)O` [Octadecanedioic acid]: the LC retention time worked out at 1.24 min.

In the case of `CCCCCCCC=O` [Octanal], the LC retention time amounted to 6.98 min.

`CCCCCCCCO` [Octanol]: the LC retention time came to 8.47 min.

`CC(NC(CCCN=C(N)N)C(=O)O)C(=O)O` (centres undefined) [Octopine]: the LC retention time is 10.3 min.

For `Cc1cc2c(s1)Nc1ccccc1N=C2N1CCN(C)CC1` [Olanzapine], the LC retention time was determined as 4.56 min.

As for `CCCc1nc(C(C)(C)O)c(C(=O)O)n1Cc1ccc(-c2ccccc2-c2nn[nH]n2)cc1` [Olmesartan], the LC retention time worked out at 4.76 min.

For `CN(C)CCC=C1c2ccccc2COc2ccc(CC(=O)O)cc21` [Olopatadine], the LC retention time was determined as 4.41 min.

Take `Cc1nccn1CC1CCc2c(c3ccccc3n2C)C1=O` (centres undefined) [Ondansetron]: the LC retention time turned out to be 2.83 min.

In the case of `CCCCCCCCCCCC(CC1OC(=O)C1CCCCCC)OC(=O)C(CC(C)C)NC=O` (centres undefined) [Orlistat], the LC retention time came to 0.89 min.

For `COc1cc(C)c(Cc2cnc(N)nc2N)cc1OC` [Ormetroprim], the LC retention time was determined as 4.19 min.

As to `Cc1ncc([N+](=O)[O-])n1CC(O)CCl` (centres undefined) [Ornidazole], the LC retention time worked out at 1.08 min.

As to `NCCCC(N)C(=O)O` (centres undefined) [Ornithine], the LC retention time came to 9.6 min.

Consider `Nc1ccccc1S(=O)(=O)O` [Orthanilic acid], for which the LC retention time is 2.52 min.

As for `CCN(CC)CC1CCCCN1CC(=O)N1c2ccccc2C(=O)Nc2cccnc21` (centres undefined) [Otenzepad], the LC retention time was 2.94 min.

As to `O=C(O)CCc1nc(-c2ccccc2)c(-c2ccccc2)o1` [Oxaprozin], the LC retention time turned out to be 1.11 min.

With `O=C1Nc2ccc(Cl)cc2C(c2ccccc2)=NC1O` (centres undefined) [Oxazepam], the LC retention time turned out to be 1.37 min.

On to `Clc1ccc(CON=C(Cn2ccnc2)c2ccc(Cl)cc2Cl)c(Cl)c1` [Oxiconazole], for which the LC retention time worked out at 1.08 min.

As for `COc1ccc2c3c1OC1C(=O)CCC4(O)C(C2)N(C)CCC314` (centres undefined) [Oxycodone], the LC retention time is 4.58 min.
